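96-well plates; 48 h exposure; 5 concentrations. Endpoints by linear interpolation between flanking doses. Not reached: highest tested concentration assigned. TGI: concentration producing complete growth inhibition.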
Experiments:
Assay in all cases: NCI anticancer screen, dose series, 48 h
SK-MEL-28 melanoma = test system: SK-MEL-28 melanoma
NCI-H23 lung = test system: NCI-H23 lung
SK-MEL-5 melanoma = test system: SK-MEL-5 melanoma
A549 NSCLC = test system: A549 NSCLC
HOP-62 NSCLC = test system: HOP-62 NSCLC
NCI-H460 lung = test system: NCI-H460 lung
786-0 renal = test system: 786-0 renal
OVCAR-4 ovarian = test system: OVCAR-4 ovarian
SR leukemia = test system: SR leukemia
SN12C renal = test system: SN12C renal
SF-539 CNS = test system: SF-539 CNS
M14 melanoma = test system: M14 melanoma
UACC-257 melanoma = test system: UACC-257 melanoma
HS 578T breast = test system: HS 578T breast
NCI-H226 lung = test system: NCI-H226 lung
HCT-15 colon = test system: HCT-15 colon
MCF7 breast = test system: MCF7 breast
SF-295 CNS = test system: SF-295 CNS
LOX IMVI melanoma = test system: LOX IMVI melanoma
A498 renal = test system: A498 renal
SNB-19 CNS = test system: SNB-19 CNS
HCC-2998 colon = test system: HCC-2998 colon
U251 CNS = test system: U251 CNS
MDA-MB-231 breast = test system: MDA-MB-231 breast
NCI/ADR-RES ovarian = test system: NCI/ADR-RES ovarian
SW-620 colon = test system: SW-620 colon
COLO 205 colon = test system: COLO 205 colon
CCRF-CEM leukemia = test system: CCRF-CEM leukemia
RXF 393 renal = test system: RXF 393 renal
HOP-92 NSCLC = test system: HOP-92 NSCLC
OVCAR-5 ovarian = test system: OVCAR-5 ovarian
SF-268 CNS = test system: SF-268 CNS
UO-31 renal = test system: UO-31 renal
K-562 leukemia = test system: K-562 leukemia
DU-145 prostate = test system: DU-145 prostate
OVCAR-8 ovarian = test system: OVCAR-8 ovarian
SNB-75 CNS = test system: SNB-75 CNS
KM12 colon = test system: KM12 colon
HCT-116 colon = test system: HCT-116 colon
TK-10 renal = test system: TK-10 renal
HL-60(TB) leukemia = test system: HL-60(TB) leukemia
MDA-MB-435 = test system: MDA-MB-435
MALME-3M melanoma = test system: MALME-3M melanoma
EKVX NSCLC = test system: EKVX NSCLC
SK-OV-3 ovarian = test system: SK-OV-3 ovarian
MOLT-4 leukemia = test system: MOLT-4 leukemia
RPMI-8226 leukemia = test system: RPMI-8226 leukemia
HT29 colon = test system: HT29 colon
ACHN renal = test system: ACHN renal
NCI-H522 lung = test system: NCI-H522 lung
PC-3 prostate = test system: PC-3 prostate
IGROV1 ovarian = test system: IGROV1 ovarian
CAKI-1 renal = test system: CAKI-1 renal
SK-MEL-2 melanoma = test system: SK-MEL-2 melanoma
BT-549 breast = test system: BT-549 breast
OVCAR-3 ovarian = test system: OVCAR-3 ovarian
UACC-62 melanoma = test system: UACC-62 melanoma
T-47D breast = test system: T-47D breast

Measured: TGI

COc1cc(C(=O)O[C@H]2CCC3CCC2N3C)cc(OC)c1OC (stereo not given in full)
not listed: NCI-H522 lung | PC-3 prostate | IGROV1 ovarian | CAKI-1 renal | SK-MEL-2 melanoma | BT-549 breast | OVCAR-3 ovarian | UACC-62 melanoma | T-47D breast
> 100 µM: all other assays above

O=C(NCCn1ccnn1)Nc1ccccc1
not listed: OVCAR-4 ovarian | SF-539 CNS | HS 578T breast | NCI-H226 lung | A498 renal | RXF 393 renal | UO-31 renal | HCT-116 colon | SK-OV-3 ovarian | OVCAR-3 ovarian | UACC-62 melanoma | T-47D breast
> 100 µM: all other assays above

O=C(OCc1ccccc1)c1nc2ccccc2n1S(=O)(=O)c1ccccc1
not listed: SR leukemia | MCF7 breast | NCI-H522 lung
> 100 µM: all other assays above
